The source made the active and inactive calls.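 The calls were made as follows: active = inhibition zone diameter above 0 mm; inactive = zone diameter of 0 mm or less.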

Among the data in PubChem BioAssay AID434975 (The Scripps Research Institute Molecular Screening Center, 2010) are inhibition zone diameter values, retold here.

This test relates to Candida albicans ATCC 90028, disc diffusion zone, 24 h. The test can be described thus: antifungal activity against C. albicans – disc diffusion, zone diameter, TPT1 inhibitor project, late-stage follow-up (AID 434975). The conditions noted are these: at 10 mM; stronger effect = higher value. In general terms: Agar diffusion results depend on both activity and mobility in agar.
On to `Cc1ccccc1N1C(=O)/C(=C/c2ccco2)C(=O)NC1=S`, for which the inhibition zone diameter is 0 mm (inactive).
Under `Cc1cc(C)n(Cc2ccc(C(=O)NN=Cc3ccc(-c4ccc([N+](=O)[O-])cc4)o3)o2)n1` stands 0 mm (inactive); under `OC(Cn1cncn1)(Cn1cncn1)c1ccc(F)cc1F`, 38 mm.
With `NC(=O)c1cc[n+](CC2=C(C(=O)O)N3C(=O)[C@@H](NC(=O)C(c4ccccc4)S(=O)(=O)O)[C@H]3SC2)cc1` (stereo partly drawn), the inhibition zone diameter was 0 mm (inactive).
Regarding `O=c1oc2c(O)c(O)cc3c(=O)oc4c(O)c(O)cc1c4c23`, the inhibition zone diameter was 0 mm (inactive).
`COc1ccc(OC)c(N2C(=O)/C(=C/c3ccco3)C(=O)NC2=S)c1`: the inhibition zone diameter is 0 mm (inactive).
As to `CC1=C(C#N)C(=O)N(C2CCS(=O)(=O)C2)C(=O)/C1=C\c1ccco1` (stereo not drawn), the inhibition zone diameter was 0 mm (inactive).
Take `Cc1ccc(N2C(=O)NC(=O)/C(=C\c3ccc([N+](=O)[O-])o3)C2=O)cc1`: the inhibition zone diameter is 12.6 mm.
